Measurements taken from PubChem BioAssay AID1963449 (Molecular Pharmacology Branch, DTP, NCI, 2024).
pIC50: −log10 of the molar value.

Test system: 596521-263-R-J1-PDC complex spheroid growth
Assay: Anticancer human tumor 596521-263-R-J1-PDC patient-derived soft tissue sarcoma cell line growth inhibition [Asc]
Details: for pIC50: curve of first compound; for viability, T/C: stronger effect = lower value
Outline: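 Complex solid-tumor spheroids incorporating human endothelial and mesenchymal stem cells received single agents or combinations over half-log dilution ranges anchored to clinical Cmax.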

[1] = second compound 0.00316 µM, first compound 0.0316 µM
[2] = second compound 0.00316 µM, first compound 0.1 µM
[3] = second compound 0.01 µM, first compound 0.0316 µM
[4] = second compound 0.01 µM, first compound 0.1 µM
[5] = second compound 0.0316 µM, first compound 0.0316 µM
[6] = second compound 0.0316 µM, first compound 0.1 µM
[7] = second compound 0.1 µM, first compound 0.0316 µM
[8] = second compound 0.1 µM, first compound 0.1 µM
[9] = second compound 0.316 µM, first compound 0.0316 µM
[10] = second compound 0.316 µM, first compound 0.1 µM
[11] = second compound 1 µM, first compound 0.0316 µM
[12] = second compound 1 µM, first compound 0.1 µM
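Further: spheroids exposed to compounds for 7 days.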

With `Cc1nc(N2CCC3(CC2)COC(C)C3N)c(CO)nc1Sc1ccnc(N)c1Cl` (stereo unspecified) + CCN1C(C(=O)NC23CCC(C(=O)O)(CC2)CC3)C(c2cccc(Cl)c2F)C2(C(=O)Nc3cc(Cl)ccc32)C12CCCCC2 the pIC50 (second compound 0.00949 µM) was < 5.52, the pIC50 (second compound 0.03 µM) was < 5.52 and the pIC50 (second compound 0.0949 µM) was < 5.52. The pIC50 (second compound 0.3 µM) was < 5.52, the pIC50 (second compound 0.949 µM) was < 5.52 and the pIC50 (second compound 3 µM) was < 5.52. It also gave a viability, T/C (second compound 0.00949 µM, first compound 0.00949 µM) of 97.8%, a viability, T/C (second compound 0.00949 µM, first compound 0.03 µM) of 92.9% and a viability, T/C (second compound 0.00949 µM, first compound 0.0949 µM) of 87.7%. For the same molecule, the viability, T/C (second compound 0.00949 µM, first compound 0.3 µM) was 84.5%, the viability, T/C (second compound 0.00949 µM, first compound 0.949 µM) was 78.6% and the viability, T/C (second compound 0.00949 µM, first compound 3 µM) was 67.8%. The viability, T/C (second compound 0.03 µM, first compound 0.00949 µM) was 92.5%, the viability, T/C (second compound 0.03 µM, first compound 0.03 µM) was 99.1% and the viability, T/C (second compound 0.03 µM, first compound 0.0949 µM) was 104%. The viability, T/C (second compound 0.03 µM, first compound 0.3 µM) was 88.3%, the viability, T/C (second compound 0.03 µM, first compound 0.949 µM) was 81.2% and the viability, T/C (second compound 0.03 µM, first compound 3 µM) was 66.2%. The viability, T/C (second compound 0.0949 µM, first compound 0.00949 µM) was 101%, the viability, T/C (second compound 0.0949 µM, first compound 0.03 µM) was 92.9% and the viability, T/C (second compound 0.0949 µM, first compound 0.0949 µM) was 87.4%. The viability, T/C (second compound 0.0949 µM, first compound 0.3 µM) was 91.3%, the viability, T/C (second compound 0.0949 µM, first compound 0.949 µM) was 80% and the viability, T/C (second compound 0.0949 µM, first compound 3 µM) was 69.3%. The viability, T/C (second compound 0.3 µM, first compound 0.00949 µM) was 101%, the viability, T/C (second compound 0.3 µM, first compound 0.03 µM) was 95% and the viability, T/C (second compound 0.3 µM, first compound 0.0949 µM) was 96.5%. For the same molecule, the viability, T/C (second compound 0.3 µM, first compound 0.3 µM) was 91.5%, the viability, T/C (second compound 0.3 µM, first compound 0.949 µM) was 83.8% and the viability, T/C (second compound 0.3 µM, first compound 3 µM) was 69.3%. It also gave a viability, T/C (second compound 0.949 µM, first compound 0.00949 µM) of 90.8%, a viability, T/C (second compound 0.949 µM, first compound 0.03 µM) of 101% and a viability, T/C (second compound 0.949 µM, first compound 0.0949 µM) of 100%. It also gave a viability, T/C (second compound 0.949 µM, first compound 0.3 µM) of 91.5%, a viability, T/C (second compound 0.949 µM, first compound 0.949 µM) of 90.1% and a viability, T/C (second compound 0.949 µM, first compound 3 µM) of 73.8%. For the same molecule, the viability, T/C (second compound 3 µM, first compound 0.00949 µM) was 82.6%, the viability, T/C (second compound 3 µM, first compound 0.03 µM) was 81.6% and the viability, T/C (second compound 3 µM, first compound 0.0949 µM) was 82.1%. The viability, T/C (second compound 3 µM, first compound 0.3 µM) was 86.1%, the viability, T/C (second compound 3 µM, first compound 0.949 µM) was 65.8% and the viability, T/C (second compound 3 µM, first compound 3 µM) was 58.2%.
In the case of `Cn1ncnc1[C@H]1c2n[nH]c(=O)c3cc(F)cc(c23)N[C@@H]1c1ccc(F)cc1` + CNC(C)C(=O)NC1CN(S(=O)(=O)c2cccc(S(=O)(=O)N3CCC4CCC(C(=O)NC(c5ccccc5)c5ccccc5)N4C(=O)C(NC(=O)C(C)NC)C3)c2)CCC2CCC(C(=O)NC(c3ccccc3)c3ccccc3)N2C1=O, the pIC50 (second compound 0.00316 µM) was > 9.50, the pIC50 (second compound 0.01 µM) was < 7.00 and the pIC50 (second compound 0.0316 µM) was < 7.00. The pIC50 (second compound 0.1 µM) was < 7.00, the pIC50 (second compound 0.316 µM) was < 7.00 and the pIC50 (second compound 1 µM) was < 7.00. The viability, T/C (second compound 0.00316 µM, first compound 0.000316 µM) was 16.1%, the viability, T/C (second compound 0.00316 µM, first compound 0.001 µM) was 16% and the viability, T/C (second compound 0.00316 µM, first compound 0.00316 µM) was 15.3%. It also gave a viability, T/C (second compound 0.00316 µM, first compound 0.01 µM) of 16.5%, a viability, T/C [1] of 15.2% and a viability, T/C [2] of 15.6%. For the same molecule, the viability, T/C (second compound 0.01 µM, first compound 0.000316 µM) was 76%, the viability, T/C (second compound 0.01 µM, first compound 0.001 µM) was 62.1% and the viability, T/C (second compound 0.01 µM, first compound 0.00316 µM) was 63.8%. The viability, T/C (second compound 0.01 µM, first compound 0.01 µM) was 64.2%, the viability, T/C [3] was 67.4% and the viability, T/C [4] was 57.3%. It also gave a viability, T/C (second compound 0.0316 µM, first compound 0.000316 µM) of 92.6%, a viability, T/C (second compound 0.0316 µM, first compound 0.001 µM) of 75.9% and a viability, T/C (second compound 0.0316 µM, first compound 0.00316 µM) of 73%. It also gave a viability, T/C (second compound 0.0316 µM, first compound 0.01 µM) of 76.9%, a viability, T/C [5] of 64.1% and a viability, T/C [6] of 64.7%. It also gave a viability, T/C (second compound 0.1 µM, first compound 0.000316 µM) of 81.9%, a viability, T/C (second compound 0.1 µM, first compound 0.001 µM) of 81% and a viability, T/C (second compound 0.1 µM, first compound 0.00316 µM) of 79.9%. It also gave a viability, T/C (second compound 0.1 µM, first compound 0.01 µM) of 71.1%, a viability, T/C [7] of 62.2% and a viability, T/C [8] of 60.3%. The viability, T/C (second compound 0.316 µM, first compound 0.000316 µM) was 83.3%, the viability, T/C (second compound 0.316 µM, first compound 0.001 µM) was 74.7% and the viability, T/C (second compound 0.316 µM, first compound 0.00316 µM) was 79.3%. It also gave a viability, T/C (second compound 0.316 µM, first compound 0.01 µM) of 64%, a viability, T/C [9] of 65.1% and a viability, T/C [10] of 60.6%. It also gave a viability, T/C (second compound 1 µM, first compound 0.000316 µM) of 73.2%, a viability, T/C (second compound 1 µM, first compound 0.001 µM) of 76.8% and a viability, T/C (second compound 1 µM, first compound 0.00316 µM) of 71.5%. For the same molecule, the viability, T/C (second compound 1 µM, first compound 0.01 µM) was 77.3%, the viability, T/C [11] was 64.1% and the viability, T/C [12] was 58.3%.
In the case of `O=C(c1cc(Cc2n[nH]c(=O)c3ccccc23)ccc1F)N1CCN(C(=O)C2CC2)CC1` + CNC(C)C(=O)NC1CN(S(=O)(=O)c2cccc(S(=O)(=O)N3CCC4CCC(C(=O)NC(c5ccccc5)c5ccccc5)N4C(=O)C(NC(=O)C(C)NC)C3)c2)CCC2CCC(C(=O)NC(c3ccccc3)c3ccccc3)N2C1=O, the pIC50 (second compound 0.00316 µM) was > 7.50, the pIC50 (second compound 0.01 µM) was 5.68 and the pIC50 (second compound 0.0316 µM) was 5.32. It also gave a pIC50 (second compound 0.1 µM) of 5.44, a pIC50 (second compound 0.316 µM) of 5.54 and a pIC50 (second compound 1 µM) of 5.65. The viability, T/C [1] was 16.1%, the viability, T/C [2] was 14.4% and the viability, T/C (second compound 0.00316 µM, first compound 0.316 µM) was 17.1%. It also gave a viability, T/C (second compound 0.00316 µM, first compound 1 µM) of 14.8%, a viability, T/C (second compound 0.00316 µM, first compound 3.16 µM) of 13.7% and a viability, T/C (second compound 0.00316 µM, first compound 10 µM) of 12.7%. For the same molecule, the viability, T/C [3] was 73.9%, the viability, T/C [4] was 61.2% and the viability, T/C (second compound 0.01 µM, first compound 0.316 µM) was 60.7%. For the same molecule, the viability, T/C (second compound 0.01 µM, first compound 1 µM) was 64.3%, the viability, T/C (second compound 0.01 µM, first compound 3.16 µM) was 36.7% and the viability, T/C (second compound 0.01 µM, first compound 10 µM) was 45.1%. The viability, T/C [5] was 90.9%, the viability, T/C [6] was 84.4% and the viability, T/C (second compound 0.0316 µM, first compound 0.316 µM) was 87.2%. The viability, T/C (second compound 0.0316 µM, first compound 1 µM) was 71.8%, the viability, T/C (second compound 0.0316 µM, first compound 3.16 µM) was 54.6% and the viability, T/C (second compound 0.0316 µM, first compound 10 µM) was 42.4%. For the same molecule, the viability, T/C [7] was 79.1%, the viability, T/C [8] was 73.4% and the viability, T/C (second compound 0.1 µM, first compound 0.316 µM) was 75.5%. It also gave a viability, T/C (second compound 0.1 µM, first compound 1 µM) of 78.1%, a viability, T/C (second compound 0.1 µM, first compound 3.16 µM) of 51.7% and a viability, T/C (second compound 0.1 µM, first compound 10 µM) of 37.7%. The viability, T/C [9] was 77.4%, the viability, T/C [10] was 79.2% and the viability, T/C (second compound 0.316 µM, first compound 0.316 µM) was 80.5%. It also gave a viability, T/C (second compound 0.316 µM, first compound 1 µM) of 72.4%, a viability, T/C (second compound 0.316 µM, first compound 3.16 µM) of 48.4% and a viability, T/C (second compound 0.316 µM, first compound 10 µM) of 36%. The viability, T/C [11] was 68.7%, the viability, T/C [12] was 71.5% and the viability, T/C (second compound 1 µM, first compound 0.316 µM) was 61.7%. It also gave a viability, T/C (second compound 1 µM, first compound 1 µM) of 69.1%, a viability, T/C (second compound 1 µM, first compound 3.16 µM) of 42.3% and a viability, T/C (second compound 1 µM, first compound 10 µM) of 31.3%.
